For assay [1], the target named is T1, [^3 H]-imipramine receptor (human platelet membranes) (Homo sapiens, UniProt P31645).
T1 construct: Platelet membranes were obtained using the procedure described by Wennogle, L. P., et al; tissue New York Blood Center; host or cells: human platelets (washed, sonicated membranes)
Description: Inhibition of [^3 H]-imipramine binding to human platelet membranes. Conditions: 10 μm test compound, 90 minutes at 0° C., duplicate, more than 50% considered active; for inhibition at 10 µM: 1.5 h. As to the method:
The activity of the compounds of this invention as antidepressant agents was verified in the following test which measures the ability of a test compound to inhibit [^3 H]-imipramine binding to human platelet membranes.
Platelet membranes were obtained using the procedure described by Wennogle, L. P., et al., Pharmac. Biochem Behav., 15, 975 (1981). Fresh human platelet concentrates(less than 48 hours old) were obtained from the New York Blood Center. These concentrates were prepared in a citrate-dextrose anticoagulant using standard techniques. Platelets were washed twice by centrifugation (2500 x G, 10 minutes) in 50 volumes of an antiprotease buffer containing 0.005M potassium chloride, 0.12M sodium chloride, 0.05M Tris pH 7.5, 0.025 Units/ml aprotinin, 0.5 μg/m pepstatin, […] bacitracin, 3 mM ethylenediaminetetraacetic acid and 1.0 mM ethylene glycol-bis(β-aminoethyl ether)-N,N'-tetraacetic acid. […] All procedures were conducted at 0° C. using plastic laboratory ware throughout the platelet membrane preparation. Platelets were resuspended in 20 volumes of buffer and sonicated 3 times using 10 second bursts of a Branson sonifier (cell disrupter 350) at setting 6 (standard 3/4 inch horn), keeping the sample on ice throughout the procedure. Platelet membranes were then washed twice at 18,000 x G for 20 minutes with 50 volumes of the antiprotease buffer and resuspended to 3.0 mg protein/ml using the Bradford protein analysis with bovine gamma globulin as standard. Membranes were used immediately or stored frozen in liquid nitrogen.
The displacement of [^3 H]-imipramine binding to human platelet membranes was performed essentially as described by Paul, S. M., et al , Life Sci., 26, 953 (1980) with the following modifications. Membranes (0.3 mg protein) were suspended in antiprotease buffer with both […] [^3 H]-imipramine (New England Nuclear) and displacing drug or buffer in a total volume of 250 μl in glass test tubes. Samples were incubated for 90 minutes at 0° C., then diluted to 5 ml in […] sodium chloride, 0.005M potassium chloride, 0.05 Tris pH 7.5 (wash buffer) and immediately filtered through GF/B Whatman Filters and washed twice with 5 ml of wash buffer. Filters were counted in a liquid scintillation counter after addition of Beckman Hp Scintillant.
Non-specific binding of [^3 H]-imipramine was defined as that fraction (generally 35%) of radioactivity that was not displaced by 10 μm desmethylimipramine. Specific binding was determined by subtraction of this non-specific level from values for total [^3 H]-imipramine binding which were measured by incubating [^3 H]-imipramine in the absence of displacing drug. Compounds were tested in duplicate test tubes at a concentration of 10 μm. Compounds which inhibited binding by more than 50% were considered to be active.

Assay [2] relates to spontaneously hypertensive rats of the Okamoto strain. Briefly: Reduction of mean arterial blood pressure in spontaneously hypertensive rats. The format is in vivo, rat. Conditions: second identical dose at 24 h, measured at 28 h, male SHR, average MABP 160±1.5 mm of mercury. As to the method:
These compounds were tested for hypotensive activity by the method of P. S. Chan and D. W. Poorvin, Clinical and Experimental Hypertension, 1 (6), 817-830 (1979). Male, 16 week old, spontaneously hypertensive rats of the Okamoto strain having an average mean arterial blood pressure of 160±1.5 mm of mercury are used in the test. One to three rats are used per test compound. The test compound is suspended in 2% pre-boiled starch at a concentration of 50 mg/ml, and a rat is dosed by gavage at a dose of 100 mg/kg of body weight or less, with 0.9% sodium chloride loading at a dose of 25 ml/kg of body weight. A second identical dose of the test compound, without sodium chloride loading, is given 24 hours later. At 28 hours after the initial dose the mean arterial blood pressure is measured by the method of Chan and Poorvin vide supra. The procedure is repeated in a second and third rat when necessary.

As a reminder, the inhibition is the relative decrease from the control value, in per cent.

Counter-ions that a name gives are not always drawn.

T1 sequence (P31645 whole entry): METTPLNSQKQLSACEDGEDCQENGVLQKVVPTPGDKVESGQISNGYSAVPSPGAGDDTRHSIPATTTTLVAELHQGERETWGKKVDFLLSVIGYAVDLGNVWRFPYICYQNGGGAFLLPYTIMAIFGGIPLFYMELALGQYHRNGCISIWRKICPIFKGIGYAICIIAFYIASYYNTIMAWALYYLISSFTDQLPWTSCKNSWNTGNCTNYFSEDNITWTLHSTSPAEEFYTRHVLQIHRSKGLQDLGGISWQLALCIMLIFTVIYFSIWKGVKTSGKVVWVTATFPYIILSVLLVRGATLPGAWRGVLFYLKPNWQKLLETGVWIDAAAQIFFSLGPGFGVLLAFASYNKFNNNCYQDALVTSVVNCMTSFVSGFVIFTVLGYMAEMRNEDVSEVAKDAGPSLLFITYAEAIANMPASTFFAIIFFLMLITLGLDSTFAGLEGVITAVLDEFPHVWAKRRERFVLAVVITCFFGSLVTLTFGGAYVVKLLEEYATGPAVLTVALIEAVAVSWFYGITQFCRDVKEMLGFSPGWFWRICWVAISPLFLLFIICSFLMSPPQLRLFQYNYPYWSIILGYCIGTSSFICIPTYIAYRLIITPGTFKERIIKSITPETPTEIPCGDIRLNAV

`COc1cccc(CN2CCN(CC(=O)N3CC=C(c4cccc(C(F)(F)F)c4)n4cnc(C#N)c43)CC2)c1` [Example 6, 1,2-Dihydro-1-[[4-[(3-methoxyphenyl)methyl]-1-piperazinyl]acetyl]-4-[3-trifluoromethyl)phenyl]imidazo[1,5-a]pyrimidine-8-carbonitrile, dihydrochloride]: at 10 µM the inhibition in assay [1] was 75%.

`COc1ccc(Cl)cc1NCC(=O)N1CC=C(c2cccc(C(F)(F)F)c2)n2cnc(C#N)c21` [1-[[(5-Chloro-2-methoxyphenyl)amino]acetyl]-1,2-dihydro-4-[3-(trifluoromethyl)phenyl]imidazo[1,5-a]pyrimidine-8-carbonitrile]: the “MABP/mm Hg (mean arterial blood pressure)” value (“MABP/mm Hg” below) in assay [2] (100 mg/kg by gavage) is on record as 135 mm Hg.

With `N#Cc1ncn2c1N(C(=O)CCN1CCN(c3ccc(Cl)cc3)CC1)CC=C2c1cccc(C(F)(F)F)c1` [Example 18, 1-[3-[4-(4-Chlorophenyl)-1-piperazinyl]-1-oxopropyl]-1,2-dihydro-4-[3-(trifluoromethyl)phenyl]imidazo[1,5-a]pyrimidine-8-carbonitrile], in assay [2] (100 mg/kg by gavage), the “MABP/mm Hg” value is 118 mm Hg. In addition, the inhibition at 10 µM in assay [1] was found to be 53%.

On to `N#Cc1ncn2c1N(C(=O)CCN1CCN(Cc3c(Cl)cccc3Cl)CC1)CC=C2c1cccc(C(F)(F)F)c1` [Example 23, 1-[4-[4-[(2,6-Dichlorophenyl)methyl]-1-piperazinyl]-1-oxopropyl]-1,2-dihydro-4-[3-(trifluoromethyl)phenyl]imidazo[1,5-a]pyrimidine-8-carbonitrile], for which, in assay [1], the inhibition at 10 µM is 98%.

Compound `N#Cc1ncn2c1N(C(=O)CN1CCN(Cc3ccc(Cl)cc3)CC1)CC=C2c1cccc(C(F)(F)F)c1` [Example 11, 1-[[4-[(4-Chlorophenyl)methyl]-1-piperazinyl]acetyl]-1,2-dihydro-4-[3-(trifluoromethyl)phenyl]imidazo[1,5-a]pyrimidine-8-carbonitrile] showed an inhibition at 10 µM in assay [1] of 93%.

`N#Cc1ncn2c1N(C(=O)CCN1CCN(CCCOc3ccccc3)CC1)CC=C2c1cccc(C(F)(F)F)c1` [Example 21, 1,2-Dihydro-1-[1-oxo-3-[4-(3-phenoxypropyl)-1-piperazinyl]propyl]-4-[3-(trifluoromethyl)phenyl]imidazo[1,5-a]pyrimidine-8-carbonitrile] registered an inhibition at 10 µM in assay [1] of 66%.

In assay [1], `N#Cc1ncn2c1N(C(=O)CCN1CCN(Cc3ccccc3)CC1)CC=C2c1cccc(C(F)(F)F)c1` [Example 22, 1,2-Dihydro-1-[1-oxo-3-[(4-phenylmethyl)-1-piperazinyl]propyl]-4-[3-(trifluoromethyl)phenyl]imidazo[1,5-a]pyrimidine-8-carbonitrile] had an inhibition at 10 µM of 61%.

For the compound `N#Cc1ncn2c1N(C(=O)CCN1CCN(c3ccc(F)cc3)CC1)CC=C2c1cccc(C(F)(F)F)c1` [Example 16, 1-[3-[4-(4-Fluorophenyl)-1-piperazinyl]-1-oxopropyl]-1,2-dihydro-4-[3-(trifluoromethyl)phenyl]imidazo[1,5-a]pyrimidine-8-carbonitrile], the “MABP/mm Hg” value in assay [2] (100 mg/kg by gavage) was 110 mm Hg. This compound returned an inhibition at 10 µM in assay [1] of 78%.

For `CC(C)N1CCN(CCC(=O)N2CC=C(c3cccc(C(F)(F)F)c3)n3cnc(C#N)c32)CC1` [Example 24, 1,2-Dihydro-1-[3-[4-(1-methylethyl)-1-piperazinyl]-1-oxopropyl]-4-[3-(trifluoromethyl)phenyl]imidazo[1,5-a]pyrimidine-8-carbonitrile], the “MABP/mm Hg” value in assay [2] (50 mg/kg by gavage) was 133 mm Hg.

Consider `C#CCN1CCN(CC(=O)N2CC=C(c3cccc(C(F)(F)F)c3)n3cnc(C#N)c32)CC1.Cl.Cl` [Example 14, 1,2-Dihydro-1-[[4-(2-propynyl)-1-piperazinyl]acetyl]-4-[3-(trifluoromethyl)phenyl]imidazo[1,5-a]pyrimidine-8-carbonitrile, dihydrochloride], for which, in assay [2] (100 mg/kg by gavage), the “MABP/mm Hg” value is reported as 129 mm Hg.

For the compound `N#Cc1ncn2c1N(C(=O)CN1CCN(c3ccc(Cl)cc3)CC1)CC=C2c1cccc(C(F)(F)F)c1` [Example 13, 1-[[4-(4-Chlorophenyl)-1-piperazinyl]acetyl]-1,2-dihydro-4-[3-(trifluoromethyl)phenyl]imidazo[1,5-a]pyrimidine-8-carbonitrile], in assay [2] (100 mg/kg by gavage), the “MABP/mm Hg” value was found to be 137 mm Hg.

Regarding `N#Cc1ncn2c1N(C(=O)CN1CCN(C(c3ccccc3)c3ccc(Cl)cc3)CC1)CC=C2c1cccc(C(F)(F)F)c1` (stereo not shown) [Example 10, 1-[[4-[(4-Chlorophenyl)phenylmethyl]-1-piperazinyl]acetyl]-1,2-dihydro-4-[3-(trifluoromethyl)phenyl]imidazo[1,5-a]pyrimidine-8-carbonitrile], the “MABP/mm Hg” value in assay [2] (100 mg/kg by gavage) came out at 137 mm Hg.

On to `N#Cc1ncn2c1N(C(=O)CCN1CCN(Cc3ccc(Cl)cc3)CC1)CC=C2c1cccc(C(F)(F)F)c1` [Example 20, 1-[3-[4-[(4-Chlorophenyl)methyl]-1-piperazinyl]-1-oxopropyl]-1,2-dihydro-4-[3-(trifluoromethyl)phenyl]imidazo[1,5-a]pyrimidine-8-carbonitrile], for which the “MABP/mm Hg” value in assay [2] (100 mg/kg by gavage) was 128 mm Hg. In assay [1], this compound yielded an inhibition at 10 µM of 75%.

For the compound `CCOC(=O)N1CCN(CCC(=O)N2CC=C(c3cccc(C(F)(F)F)c3)n3cnc(C#N)c32)CC1.Cl` [Example 19, 4-[3-[8-Cyano-4-[3-(trifluoromethyl)phenyl]imidazo[1,5-a]pyrimidine-1(2H)-yl]-3-oxopropyl]-1-piperazinecarboxylic acid, ethyl ester monohydrochloride], the “MABP/mm Hg” value in assay [2] (100 mg/kg by gavage) came to 134 mm Hg.

On to `N#Cc1ncn2c1N(C(=O)CCN1CCN(c3ccccc3)CC1)CC=C2c1cccc(C(F)(F)F)c1` [Example 17, 1,2-Dihydro-1-[1-oxo-3-(4-phenyl-1-piperazinyl]propyl]-4-[3-(trifluoromethyl)phenyl]imidazo[1,5-a]pyrimidine-8-carbonitrile], for which the “MABP/mm Hg” value in assay [2] (100 mg/kg by gavage) stood at 115 mm Hg.

Regarding `N#Cc1ncn2c1N(C(=O)CN1CCN(CCCOc3ccccc3)CC1)CC=C2c1cccc(C(F)(F)F)c1` [Example 9, 1,2-Dihydro-1-[[4-(3-phenoxypropyl)-1-piperazinyl]acetyl]-4-[3-(trifluoromethyl)phenyl]imidazo[1,5-a]pyrimidine-8-carbonitrile], the “MABP/mm Hg” value in assay [2] (100 mg/kg by gavage) stood at 130 mm Hg. The same compound gave an inhibition at 10 µM in assay [1] of 50%.

Take `N#Cc1ncn2c1N(C(=O)CN1CCC(c3ccccc3)CC1)CC=C2c1cccc(C(F)(F)F)c1` [Example 25, 1,2-Dihydro-1-[(4-phenyl-1-piperidinyl)acetyl]-4-[3-(trifluoromethyl)phenyl]imidazo[1,5-a]pyrimidine-8-carbonitrile]: the “MABP/mm Hg” value in assay [2] (100 mg/kg by gavage) amounted to 137 mm Hg.

For `COc1cccc(CN2CCN(CC(=O)N3CC=C(c4cccc(C(F)(F)F)c4)n4cnc(C#N)c43)CC2)c1` [Example 5, 1,2-Dihydro-1-[[4-[(3-methoxyphenyl)methyl]-1-piperazinyl]acetyl]-4-[3-(trifluoromethyl)phenyl]imidazo[1,5-a]pyrimidine-8-carbonitrile], the “% Inhibition of [^3 H]-imipramine binding” value in assay [1] came to 81%.

(Values after patent US4963552A, “1-substitute-1,2-dihydro-4-((substituted)phenyl)imidazo-[1,5-a] pyrimidine-8-carbonitriles” (American Cyanamid Company, priority 1989, dated 1990).)
